Experimental findings from ChEMBL document CHEMBL5360522, “Design, Synthesis, and Biological Evaluation of New 1H-Imidazole-2-Carboxylic Acid Derivatives as Metallo-β-Lactamase Inhibitors” (Bioorg Med Chem, 2022) are described below.

Test [1] concerns the target Metallo-beta-lactamase type 2 (Bacteria, UniProt C7C422). Nature of the test: Inhibition of NDM-1 (1 to 270 residues) (unknown origin) expressed in Escherichia coli Transetta (DE3) using FC5 as fluorescence substrate preincubated for 10 mins followed by substrate addition by microplate reader analysis.
The nature of test [2]: Inhibition of Metallo-beta-lactamase IMP-1 (unknown origin) using FC5 as fluorescence substrate preincubated for 10 mins followed by substrate addition by microplate reader analysis.
Test [3] can be described thus: Inhibition of N-terminal His-6 tagged VIM-2 (27 to 266 residues) (unknown origin) expressed in Escherichia coli Transetta (DE3) using FC5 as fluorescence substrate preincubated for 10 mins followed by substrate addition by microplate reader analysis. Details: species or system Bacteria.
A short description of test [4]: Inhibition of Metallo-beta-lactamase VIM-1 (unknown origin) using FC5 as fluorescence substrate preincubated for 10 mins followed by substrate addition by microplate reader analysis.
Test [5] in a line: Inhibition of Metallo-beta-lactamase VIM-5 (unknown origin) using FC5 as fluorescence substrate preincubated for 10 mins followed by substrate addition by microplate reader analysis.

Bounds are passed on as bounds.

Metallo-beta-lactamase type 2, sequence (C7C422 whole entry, the tested form may be a part): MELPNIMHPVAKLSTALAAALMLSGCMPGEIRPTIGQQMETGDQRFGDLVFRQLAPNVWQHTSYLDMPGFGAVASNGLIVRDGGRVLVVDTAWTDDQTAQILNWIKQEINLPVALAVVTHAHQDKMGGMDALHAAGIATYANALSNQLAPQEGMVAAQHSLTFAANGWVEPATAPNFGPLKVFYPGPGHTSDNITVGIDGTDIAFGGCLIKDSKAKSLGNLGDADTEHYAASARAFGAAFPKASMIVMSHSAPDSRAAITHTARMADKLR

With `O=C(O)c1nc2ccccc2n1Cc1ccccc1`, the IC50 (usually the point on the concentration scale where inhibition reaches its midpoint) in test [1] was over 100 µM; in test [2], over 100 µM; in test [3], over 300 µM; in test [4], over 100 µM.

For the compound `O=C(O)c1nccn1CCc1cccc(F)c1`, the IC50 was 0.66 µM in test [5]; over 100 µM in test [1]; 441 µM in test [2]; 0.11 µM in test [3]; 3.67 µM in test [4].

`O=C(O)c1ncsc1Cc1ccccc1`: the IC50 in test [5] amounted to 4.37 µM; in test [1], 43.7 µM; in test [2], 7.8 µM; in test [3], 2.06 µM; in test [4] it was 6.31 µM.

For `O=C(O)c1nccn1CCc1ccc(-c2ccc3ccccc3c2)cc1`, the 50% inhibitory concentration (IC50) in test [5] is 0.22 µM; in test [1] it was over 100 µM; in test [2], 202 µM; in test [3], 4.97 µM; in test [4] it was 96.7 µM.

As for `O=C(O)c1ncsc1CCc1ccccc1F`, the IC50 is 1.17 µM in test [5]; over 100 µM in test [1]; 121 µM in test [2]; 0.035 µM in test [3]; 1.82 µM in test [4].

Regarding `CCC(c1ccccc1)n1ccnc1C(=O)O` (stereo not given), the IC50 was 2.59 µM in test [5]; over 300 µM in test [1]; over 300 µM in test [2]; 2.73 µM in test [3]; 30.8 µM in test [4].

As for `Cc1ncsc1CCn1ccnc1C(=O)O`, the IC50 in test [5] was 1.99 µM; in test [1], over 100 µM; in test [2] it was over 100 µM; in test [3] it was 0.2 µM; in test [4], 31.6 µM.

As to `O=C(O)c1ncsc1CCc1ccc(Br)cc1`, the IC50 in test [5] was 0.44 µM; in test [1], over 100 µM; in test [2] it was over 100 µM; in test [3], 0.1 µM; in test [4], 8.37 µM.

`O=C(O)c1nccn1CCc1ccc(-c2ccncc2)cc1`: the IC50 stood at 0.17 µM in test [5]; 54.6 µM in test [1]; 10.2 µM in test [2]; 0.11 µM in test [3]; 2.17 µM in test [4].

For `Cc1ccc(CCn2ccnc2C(=O)O)cc1`, the IC50 in test [5] was 6.28 µM; in test [1] it was over 100 µM; in test [2] it was over 100 µM; in test [3], 0.48 µM; in test [4] it was 15.7 µM.

For the compound `O=C(O)c1nccn1CCc1cccs1`, the IC50 in test [5] is 0.64 µM; in test [1] it was over 100 µM; in test [2], 7.97 µM; in test [3] it was 0.12 µM; in test [4], 1.07 µM.

In the case of `COc1cccc(CCc2scnc2C(=O)O)c1`, the IC50 in test [5] is 3.23 µM; in test [1] it was 29.9 µM; in test [2], 61.6 µM; in test [3] it was 0.028 µM; in test [4], 4.77 µM.

As to `O=C(O)c1ncsc1CCc1ccc(C(F)(F)F)cc1`, the IC50 in test [5] was 1.55 µM; in test [1], over 100 µM; in test [2], 87.8 µM; in test [3], 0.21 µM; in test [4], 14.5 µM.

Regarding `O=C(O)c1nccn1CCc1ccc(Cl)cc1`, the IC50 in test [5] is 0.44 µM; in test [1], over 100 µM; in test [2], over 100 µM; in test [3], 0.1 µM; in test [4], 8.37 µM.

Regarding `COc1ccc(CCn2ccnc2C(=O)O)cc1OC`, the IC50 in test [5] is 15.1 µM; in test [1], over 100 µM; in test [2], 326 µM; in test [3], 0.31 µM; in test [4] it was 76.3 µM.

`O=C(O)c1ncsc1CCc1cccc(Br)c1`: the IC50 in test [5] was 1.45 µM; in test [1], over 100 µM; in test [2] it was over 100 µM; in test [3] it was 0.024 µM; in test [4], 1.64 µM.

On to `O=C(O)c1ncsc1CCc1ccc(F)cc1`, for which the IC50 in test [5] is 0.41 µM; in test [1], over 100 µM; in test [2] it was 56.8 µM; in test [3] it was 0.047 µM; in test [4], 4.09 µM.

Regarding `O=C(O)c1nccn1CCc1ccc(-c2cccc3ccccc23)cc1`, the IC50 in test [5] is 0.089 µM; in test [1] it was about 200 µM; in test [2], about 67 µM; in test [3], 1.46 µM; in test [4], over 100 µM.

Consider `COc1cccc(CCn2ccnc2C(=O)O)c1`, for which the IC50 in test [5] is 10.7 µM; in test [1] it was over 100 µM; in test [2], 70.2 µM; in test [3] it was 0.38 µM; in test [4] it was 9.39 µM.

For `O=C(O)c1ncsc1CCc1cccc(C(F)(F)F)c1`, the IC50 is 2.69 µM in test [5]; over 100 µM in test [1]; 112 µM in test [2]; 0.56 µM in test [3]; 2.08 µM in test [4].

For the compound `COc1ccc(CCn2ccnc2C(=O)O)cc1`, the IC50 was 1.64 µM in test [5]; over 100 µM in test [1]; 4.48 µM in test [2]; 0.35 µM in test [3]; 33.7 µM in test [4].

Consider `O=C(O)c1nccn1CCCc1ccccc1`, for which the IC50 is 0.83 µM in test [5]; over 100 µM in test [1]; 10.8 µM in test [2]; 0.63 µM in test [3]; 0.63 µM in test [4].

On to `O=C(O)c1nccn1CCc1cccc(Cl)c1`, for which the IC50 in test [5] was 108 µM; in test [1], over 100 µM; in test [2] it was over 100 µM; in test [3] it was 0.09 µM; in test [4], 0.96 µM.

In the case of `O=C(O)c1ncoc1Cc1ccccc1`, the IC50 in test [5] is 11.8 µM; in test [1], over 100 µM; in test [2], over 100 µM; in test [3] it was 41.7 µM; in test [4], over 100 µM.

Turning to `O=C(O)c1nncn1Cc1ccccc1`, the IC50 in test [1] and in test [3] was over 100 µM in each case.

Regarding `O=C(O)c1nccn1CCc1ccccn1`, the IC50 is 0.71 µM in test [5]; 18.9 µM in test [1]; over 100 µM in test [2]; 0.2 µM in test [3]; 3.83 µM in test [4].

Consider `O=C(O)c1nccn1CCNS(=O)(=O)c1ccccc1`, for which the IC50 in test [5] was 62.7 µM; in test [1] it was over 100 µM; in test [2], over 100 µM; in test [3], 5.95 µM; in test [4] it was over 100 µM.

Consider `O=C(O)c1ncsc1CCc1ccc(C(c2ccccc2)(c2ccccc2)c2ccccc2)cc1`, for which the IC50 in test [5] was 0.65 µM; in test [1], over 100 µM; in test [2], 46.8 µM; in test [3], 0.23 µM; in test [4], 9.56 µM.

Take `Nc1ccc(CCn2ccnc2C(=O)O)cc1`: the IC50 was 0.45 µM in test [5]; over 100 µM in test [1]; 4.9 µM in test [2]; 0.33 µM in test [3]; 3.73 µM in test [4].

On to `O=C(O)c1ncsc1CCc1ccccc1`, for which the IC50 in test [5] stood at 0.43 µM; in test [1], 82.4 µM; in test [2] it was 2.92 µM; in test [3], 0.22 µM; in test [4], 0.42 µM.

For `Cc1c(C(=O)O)ncn1Cc1ccccc1`, the IC50 in test [5], in test [1], in test [2], in test [3] and in test [4] was over 100 µM in each case.

Take `O=C(O)c1ncn(Cc2ccccc2)n1`: the IC50 in test [1] and in test [3] was over 100 µM throughout.

Regarding `O=C(O)c1nccn1CCc1ccc2c(c1)CCO2`, the IC50 in test [5] was 96.2 µM; in test [1] it was over 100 µM; in test [2], over 100 µM; in test [3], 0.48 µM; in test [4], 190 µM.

For `CC(Cn1ccnc1C(=O)O)c1ccccc1` (stereo not given), the concentration for half-maximal inhibition (IC50) in test [5] stood at 1.08 µM; in test [1], 203 µM; in test [2], 261 µM; in test [3] it was 0.19 µM; in test [4], 3.29 µM.

For `O=C(O)c1nccn1CCc1ccc(Br)cc1`, the IC50 is 0.1 µM in test [5]; over 100 µM in test [1]; over 100 µM in test [2]; 0.06 µM in test [3]; 3.5 µM in test [4].

`O=C(O)c1nccn1CCOc1ccccc1`: the IC50 in test [5] was 0.52 µM; in test [1], over 100 µM; in test [2], over 100 µM; in test [3], 5.49 µM; in test [4] it was 14.4 µM.

As for `O=C(O)c1nccn1CCS(=O)(=O)c1ccccc1`, the IC50 is 4.42 µM in test [5]; over 100 µM in test [1]; over 100 µM in test [2]; 2.87 µM in test [3]; 112 µM in test [4].

Turning to `O=C(O)c1nccn1CCc1ccccc1`, the IC50 in test [5] is 1.59 µM; in test [1], 301 µM; in test [2], 483 µM; in test [3], 0.11 µM; in test [4], 2.32 µM.

As to `CC(c1ccccc1)n1ccnc1C(=O)O` (stereo not given), the IC50 in test [5] was 3.81 µM; in test [1] it was over 200 µM; in test [2], 4.12 µM; in test [3], 0.76 µM; in test [4] it was 8.18 µM.

Turning to `O=C(Cn1ccnc1C(=O)O)c1ccccc1`, the IC50 in test [5] is 1.85 µM; in test [1] it was over 300 µM; in test [2] it was over 100 µM; in test [3], 0.63 µM; in test [4] it was 5.02 µM.

Take `O=C(O)c1ncnn1Cc1ccccc1`: the IC50 in test [1] and in test [3] was over 100 µM throughout.

With `O=C(O)c1nccn1CCc1ccc(F)cc1`, the IC50 in test [5] was 1.93 µM; in test [1] it was over 100 µM; in test [2] it was over 100 µM; in test [3] it was 0.14 µM; in test [4] it was 3.11 µM.
